From patent US6417010B1, “Methods and apparatus for synthesizing labeled combinatorial chemistry libraries” (Discovery Partners International, priority 1993, dated 2002)

System: Monoclonal antibody 3E7
Assay: Magnetic selection of peptide-bearing ELAMS by microbead-conjugated 3E7 antibody
Format: binding
Details: PBS, 16 hour incubation at 4° C., high strength magnet
Experimental: After a 16 hour incubation at 4° C., beads which bind the 3E7 antibody can be selected using a high strength magnet. The identifier information of the selected beads is then analyzed with a model DAS-4001EM or DAS-4001 detector (Bio Medic Data Systems).

## Tyr-Gly-Gly-L-Phe-L-Leu [YGGFL]
  selection of ELAMS by the 3E7 antibody: selected by the 3E7 antibody
